The test concerns the target T1, human NaPi-IIb (Homo sapiens, UniProt O95436).
T1 construct: expressed in transfected cells
T1 sequence (O95436 1-690): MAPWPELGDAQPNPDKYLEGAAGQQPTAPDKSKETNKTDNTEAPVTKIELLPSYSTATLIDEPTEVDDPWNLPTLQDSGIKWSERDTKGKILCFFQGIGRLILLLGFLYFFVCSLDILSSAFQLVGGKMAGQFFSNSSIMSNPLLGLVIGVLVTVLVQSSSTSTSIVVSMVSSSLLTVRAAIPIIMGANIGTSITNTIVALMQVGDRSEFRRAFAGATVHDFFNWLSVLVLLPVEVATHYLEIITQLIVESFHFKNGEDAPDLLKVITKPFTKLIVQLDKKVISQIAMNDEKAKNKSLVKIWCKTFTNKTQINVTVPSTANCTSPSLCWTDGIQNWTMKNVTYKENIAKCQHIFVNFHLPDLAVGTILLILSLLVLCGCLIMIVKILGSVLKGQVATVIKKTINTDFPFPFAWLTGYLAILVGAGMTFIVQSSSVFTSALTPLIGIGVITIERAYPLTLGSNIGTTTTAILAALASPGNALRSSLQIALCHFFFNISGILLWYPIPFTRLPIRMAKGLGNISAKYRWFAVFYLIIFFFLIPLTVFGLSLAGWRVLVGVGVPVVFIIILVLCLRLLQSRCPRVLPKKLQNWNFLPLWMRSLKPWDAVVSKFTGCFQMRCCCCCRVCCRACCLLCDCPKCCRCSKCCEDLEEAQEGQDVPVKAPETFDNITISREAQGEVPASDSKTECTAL
Kind of test: Inhibitory effect on 33PO4 uptake into human NaPi-IIb-expressing CHO cells. It is filed as cell-based. The method in brief: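 Uptake of ³³PO4 was measured by scintillation counting after ice-cold buffer A washes. Cells were CHO stably expressing human NaPi-IIb, seeded overnight, and exposed to ³³PO4 in buffer A at room temperature.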

The mark [1] stands for this setting: read-out: IC50 against 33PO4 uptake into human NaPi-IIb-expressing cells.

Where two headings read alike, the source gives them in different places.

A word on the IC50: it is the midpoint of a concentration-inhibition curve. With `CN1N(Cc2ccc(OCCN3CCOCC3)c(F)c2F)C(=O)C(C(=O)Nc2ccc(C(F)(F)F)cc2-c2ccc(C(F)(F)F)nc2)=C(O)C1(C)C` [Example 314, 2-[[2,3-Difluoro-4-(2-morpholin-4-ylethoxy)phenyl]methyl]-5-hydroxy-1,6,6-trimethyl-3-oxo-N-[4-(trifluoromethyl)-2-[6-(trifluoromethyl)pyridin-3-yl]phenyl]pyridazine-4-carboxamide], the IC50 (read-out: IC50) amounted to 11.8 µM. Take `COC(=O)[C@@H]1CCCN1CCOc1ccc(CN2C(=O)C(C(=O)Nc3ccc(C(F)(F)F)cc3-c3cc(C(F)(F)F)ncn3)=C(O)C3(CCC3)N2C)c(F)c1F` [Example 355]: under setting [1], the IC50 was 15 µM. For the compound `CC(C)[C@H]1C(O)=C(C(=O)Nc2ccc(C(F)(F)F)cc2-c2ccc(C(F)(F)F)nc2)C(=O)N(Cc2cccc(F)c2F)N1C` [Example 253], the half-inhibitory concentration (IC50) (read-out: IC50) came to 4.4 µM. For `C[C@]12CCCN1N(Cc1ccccc1F)C(=O)C(C(=O)Nc1ccc(C(F)(F)F)cc1-c1ccc(C(F)(F)F)nc1)=C2O` [Example 200], the IC50 (read-out: IC50) came out at 1.3 µM.

For the compound `CN1N(Cc2cccc(F)c2F)C(=O)C(C(=O)Nc2ccc(Cl)cc2-c2ccc(C(F)(F)F)nc2)=C(O)C1(C)C` [Example 309], the IC50 (read-out: IC50) is 6.5 µM.

Take `C[C@]12CCCN1N(Cc1cccc(F)c1F)C(=O)C(C(=O)Nc1ccc(C(F)(F)F)cc1-c1cnc3ccccc3c1)=C2O` [Example 83]: for the setting “read-out: IC50”, the half-maximal inhibitory concentration (IC50) came to 10.6 µM.

Regarding `CC(C)[C@H]1C(O)=C(C(=O)Nc2cc(F)c(Br)c(F)c2)C(=O)N(Cc2cccc(F)c2F)N1C` [Example 254], the IC50 (read-out: IC50) was found to be 9.7 µM. For `CN1N(Cc2ccc(OCCN3CCOCC3(C)C)c(F)c2F)C(=O)C(C(=O)Nc2ccc(C(F)(F)F)cc2-c2cc(C(F)(F)F)ncn2)=C(O)C12CCC2` [Example 341], the IC50 (read-out: IC50) turned out to be 7.6 µM. On to `COc1cccc(-c2cc(C(F)(F)F)ccc2NC(=O)C2=C(O)[C@@]3(C)CCCN3N(Cc3ccc(C#CCCCCO)c(F)c3F)C2=O)c1OC` [Example 135], for which the 50% inhibitory concentration (IC50) (read-out: IC50) came out at 12.3 µM.

Turning to `CN1N(Cc2ccc(C#CCN3CCOCC3)c(F)c2F)C(=O)C(C(=O)Nc2ccc(C(F)(F)F)cc2-c2cc(C(F)(F)F)ncn2)=C(O)C1(C)C` [Example 315], for the setting “read-out: IC50”, the IC50 amounted to 9.8 µM.

With `Cc1cc(-c2cc(C(F)(F)F)ccc2NC(=O)C2=C(O)[C@@]3(C)CCCN3N(Cc3cccc(F)c3F)C2=O)cnc1C#N` [Example 101], the IC50 (read-out: IC50) was found to be 9.4 µM.

On to `CSC1CN(CCOc2ccc(CN3C(=O)C(C(=O)Nc4ccc(C(F)(F)F)cc4-c4cc(C(F)(F)F)ncn4)=C(O)C4(CCC4)N3C)c(F)c2F)C1` [Example 357], for which the IC50 under setting [1] was found to be 21.8 µM. The same measure, in the same setting: the figure for `CN1N(Cc2ccc(OCC3CCCO3)c(F)c2F)C(=O)C(C(=O)Nc2ccc(C(F)(F)F)cc2-c2cc(C(F)(F)F)ncn2)=C(O)C12CCCC2` (centres unmarked) [Example 413] is 11.3 µM. With `C[C@]12CCCN1N(Cc1cccc(Cl)c1)C(=O)C(C(=O)Nc1ccc(C(F)(F)F)cc1-c1cc(C(F)(F)F)ncn1)=C2O` [Example 181], for the setting “read-out: IC50”, the IC50 came to 4.8 µM. On to `CN1N(Cc2ccc(OCCN3CCOCC3(C)C)c(F)c2F)C(=O)C(C(=O)Nc2ccc(C(F)(F)F)cc2-c2cc(C(F)(F)F)ncn2)=C(O)C12CCCC2` [Example 371], for which the half-maximal inhibitory concentration (IC50) under setting [1] amounted to 8.5 µM. Turning to `Cc1nc(NC(=O)C2=C(O)C3(CCC3)N(C)N(Cc3cccc(F)c3F)C2=O)ccc1Br` [Example 259], the IC50 (read-out: IC50) was 10 µM. In the case of `C[C@]12CCCN1N(Cc1ccc(F)c(Br)c1)C(=O)C(C(=O)Nc1cc(F)c(Br)c(F)c1)=C2O` [Example 224], the IC50 (read-out: IC50) amounted to 7.2 µM. `Cc1c(-c2cc(C(F)(F)F)ccc2NC(=O)C2=C(O)C3(CCC3)N(C)N(Cc3ccc(OCCN4CCOCC4)c(F)c3F)C2=O)ncnc1C(F)(F)F` [Example 285]: the IC50 (read-out: IC50) worked out at 8.5 µM. `C[C@]12CCCN1N(Cc1cccc(F)c1F)C(=O)C(C(=O)Nc1cc(F)c(Br)c(F)c1)=C2O` [Example 29]: the 50% inhibitory concentration (IC50) (read-out: IC50) was found to be 2 µM.

For `C[C@]12CCCN1N(Cc1ccccc1Cl)C(=O)C(C(=O)Nc1ccc(C(F)(F)F)cc1-c1ccc(C(F)(F)F)nc1)=C2O` [Example 168], where the note is “read-out: IC50”, the IC50 came to 2.6 µM. `CN1N(Cc2ccc(OCCOCCOCCOCCC(=O)NCC(O)CO)c(F)c2F)C(=O)C(C(=O)Nc2ccc(C(F)(F)F)cc2-c2cc(C(F)(F)F)ncn2)=C(O)C12CCCC2` (centres unmarked) [Example 424]: under setting [1], the IC50 is 29 µM. As for `Cc1c(C#N)ncnc1-c1cc(C(F)(F)F)ccc1NC(=O)C1=C(O)[C@@]2(C)CCCN2N(Cc2cccc(F)c2F)C1=O` [Example 24], the IC50 (read-out: IC50) was found to be 8.1 µM. With `COCCN(C)CCOCCOCCOCCOCCOc1ccc(CN2C(=O)C(C(=O)Nc3ccc(C(F)(F)F)cc3-c3cc(C(F)(F)F)ncn3)=C(O)C3(CCCC3)N2C)c(F)c1F` [Example 432], the IC50 under setting [1] is 6.3 µM.

`C[C@]12CCCN1N(Cc1cc(Cl)ccc1F)C(=O)C(C(=O)Nc1ccc(C(F)(F)F)cc1-c1cc(C(F)(F)F)ncn1)=C2O` [Example 211]: the IC50 (read-out: IC50) is 5.7 µM. On to `CN1N(Cc2ccc(OCCCCCOC[C@H](O)CO)c(F)c2F)C(=O)C(C(=O)Nc2ccc(C(F)(F)F)cc2-c2ccc(C(F)(F)F)nc2)=C(O)C12CCCC2` [Example 388], for which, under setting [1], the IC50 turned out to be 6.9 µM. As for `CN(C)S(=O)(=O)c1ccc(-c2cc(C(F)(F)F)ccc2NC(=O)C2=C(O)[C@@]3(C)CCCN3N(Cc3cccc(F)c3F)C2=O)s1` [Example 71], for the setting “read-out: IC50”, the IC50 was 7.8 µM. For the compound `Cc1c(Cl)ncnc1-c1cc(C(F)(F)F)ccc1NC(=O)C1=C(O)[C@@]2(C)CCCN2N(Cc2cccc(F)c2F)C1=O` [Example 69], the IC50 (read-out: IC50) was determined as 8.9 µM. In the case of `CSc1ccc(-c2cc(C(F)(F)F)ccc2NC(=O)C2=C(O)C3(CCCC3)N(C)N(Cc3ccc(OCCN4CCOCC4)c(F)c3F)C2=O)cn1` [Example 289], for the setting “read-out: IC50”, the IC50 came to 16.3 µM.

In the case of `Cc1c(C#N)ncnc1-c1cc(Cl)ccc1NC(=O)C1=C(O)[C@H](C(C)(C)C)N(C)N(Cc2ccc(OCCN3CCOCC3)c(F)c2F)C1=O` [Example 274], where the note is “read-out: IC50”, the IC50 came out at 17 µM. Take `C[C@]12CCCN1N(Cc1cccc(Cl)c1)C(=O)C(C(=O)Nc1cc(F)c(Br)c(F)c1)=C2O` [Example 221]: the IC50 (read-out: IC50) turned out to be 6.6 µM. As to `CSc1ccc(-c2cc(C(F)(F)F)ccc2NC(=O)C2=C(O)[C@@]3(C)CCCN3N(Cc3ccc(C#CCCCCC(=O)O)c(F)c3F)C2=O)cn1` [Example 117, 7-[4-[[(4aR)-4-Hydroxy-4a-methyl-3-[[2-(6-methylsulfanylpyridin-3-yl)-4-(trifluoromethyl)phenyl]carbamoyl]-2-oxo-6,7-dihydro-5H-pyrrolo[1,2-b]pyridazin-1-yl]methyl]-2,3-difluorophenyl]hept-6-ynoate], the concentration for half-maximal inhibition (IC50) (read-out: IC50) turned out to be 9.5 µM. As for `CN1N(Cc2ccc(OCCCCCOCCO)c(F)c2F)C(=O)C(C(=O)Nc2ccc(C(F)(F)F)cc2-c2cc(C(F)(F)F)ncn2)=C(O)C12CCCC2` [Example 397], the IC50 under setting [1] worked out at 8.6 µM.

With `CN1N(Cc2ccc(OCCCC(=O)O)c(F)c2F)C(=O)C(C(=O)Nc2ccc(C(F)(F)F)cc2-c2cc(C(F)(F)F)ncn2)=C(O)C12CCCC2` [Example 332, 4-[2,3-Difluoro-4-[[10-hydroxy-6-methyl-8-oxo-9-[[4-(trifluoromethyl)-2-[6-(trifluoromethyl)pyrimidin-4-yl]phenyl]carbamoyl]-6,7-diazaspiro[4.5]dec-9-en-7-yl]methyl]phenoxy]butanoate], the IC50 (read-out: IC50) came out at 23.9 µM. As to `C[C@]12CCCN1N(Cc1cccc(F)c1F)C(=O)C(C(=O)Nc1ccc(C(F)(F)F)cc1-c1cnc(N3CC4(COC4)C3)c(C#N)c1)=C2O` [Example 111, (4aR)—N-[2-[5-Cyano-6-(2-oxa-6-azaspiro[3.3]heptan-6-yl)pyridin-3-yl]-4-(trifluoromethyl)phenyl]-1-[(2,3-difluorophenyl)methyl]-4-hydroxy-4a-methyl-2-oxo-6,7-dihydro-5H-pyrrolo[1,2-b]pyridazine-3-carboxamide], the half-maximal inhibitory concentration (IC50) (read-out: IC50) was 20 µM. Consider `C[C@]12CCCN1N(Cc1cccc(Cl)c1)C(=O)C(C(=O)Nc1ccc(C(F)(F)F)cc1-c1ccc(C(F)(F)F)nc1)=C2O` [Example 169], for which the IC50 (read-out: IC50) stood at 2.6 µM. Same read-out and setting: the figure for `CCC1(CC)C(O)=C(C(=O)Nc2ccc(Cl)cc2-c2cc(C(F)(F)F)ncn2)C(=O)N(Cc2ccc(OCCN3CCOCC3)c(F)c2F)N1C` [Example 292] is 18.4 µM. Turning to `C[C@]12CCCN1N(Cc1cccc(C#N)c1)C(=O)C(C(=O)Nc1cc(F)c(Br)c(F)c1)=C2O` [Example 220], the IC50 (read-out: IC50) amounted to 12.2 µM. Consider `COCCN(C)CCOc1c(-c2cccnc2)cc(CN2C(=O)C(C(=O)Nc3ccc(C(F)(F)F)cc3-c3cc(C(F)(F)F)ncn3)=C(O)C3(CCCC3)N2C)c(F)c1F` [Example 440, 9-[[2,3-Difluoro-4-[2-[2-methoxyethyl(methyl)amino]ethoxy]-5-(3-pyridinyl)phenyl]methyl]-6-hydroxy-10-methyl-8-oxo-N-[4-(trifluoromethyl)-2-[6-(trifluoromethyl)pyrimidin-4-yl]phenyl]-9,10-diazaspiro[4.5]dec-6-ene-7-carboxamide], for which the IC50 under setting [1] was 22.6 µM.
